Laboratory results as given in US20260102407A1, “TREATMENT METHODS” (priority 2020, published 2026).

Experiments:
FosB/ΔFosB = experiment: Western blot, IL-1β-inducible FosB/ΔFosB expression in HMEC-1; type: cell-based, human; details: 30 μM, 20 ng/ml IL-1β up to 4 h
Procedure: (§1) Western blot analysis with extracts of cells treated with IL-13. HMEC-1 (80-90% confluency) were arrested in serum-free MCDB131 medium (Invitrogen, MD) without any growth factor for 48 h. Cells were treated with 30 μM compound in serum-free medium for 4 h, and incubated with 20 ng/ml IL-1β (Sigma, cat. SRE3083) in serum-free medium with the same concentration of compound for up to 4 h, unless otherwise indicated. Total protein was harvested as previously described using RIPA buffer with protease inhibitors. Proteins were resolved on 4-20% (w/v) SDS-polyacrylamide gradient gels and transferred to Immobilon-P PVDF membranes. […] Chemiluminescence was detected using the Western Lightning Chemiluminescence system and ImageQuant™ LAS 4000 biomolecular imager. Band intensity in images generated with the LAS 4000 using the same settings were quantified by NIH ImageJ.

p-p38 = experiment: Western blot, IL-1β-inducible p-p38 in HMEC-1; type: cell-based, human; details: 1-30 μM
Procedure: as §1

[1] = BT2 formulation analysis by RRLC-MS/MS and LC/MS (stability); type: physicochemical; details: for discrepancy in BT2 content: 6 weeks storage at 22° C.
Procedure: BT2 formulation analysis using RRLC-MS/MS. A rapid resolution liquid chromatography/tandem mass spectrometry (RRLC-MS/MS) method was developed under GLP by Iris Pharma using an Agilent 1200 Triple Quad G6410B to determine BT2 content in heat-treated or non-heat treated BT2 formulations at 1 week (T1 week) or 6 weeks (T6 weeks) after preparation at room temperature. The formulations were heat (H)-treated (tubes placed in a 100° C. water bath for 10 min) or non-heat treated sonicated formulations of BT2 in saline containing 0.5% Tween 80 and 0.01% DMSO). Standard curves were constructed with 8 concentrations between the lower limit of quantification (LLOQ) and the upper limit of quantification (ULOQ). Evaluations were performed on 3 preparations at the same dilution. Chromatograms were integrated using MassHunter software. For BT2 content analysis (T1 week and T6 weeks), calculation of mean, SD, CV (%) and bias (%) were performed as follows: For T1, the theoretical concentration (i.e. the weighed/formulated material supplied) was used as reference to calculate the bias (%) of each preparation containing the test sample:
Standard curves were fitted using Excel® version 2011. For each run, bias on back-calculated concentration of the standard curve and QC was determined, with back-calculated concentrations of the calibration standards being set within ±15% of the theoretical value, except for the LLOQ for which it was set within ±20%. At least 75% of the calibration standards, with a minimum of six, must have had to fulfil this criterion and the coefficient of determination (r^2) was set at ≥0.98.
BT2 formulation analysis using liquid chromatography mass spectrometry (LC/MS). DMSO (100 μl) and samples (˜50 μl) were combined along with formic acid (1 μl). These solutions (10 μl) were further diluted with H2O:CH3CN (1:1) 0.1% formic acid (90 μl) for LC/MS analysis. Samples were separated by UPLC using an HPG-3400RS UPLC pump, autosampler and column compartment system (Thermo Scientific, CA). Samples (0.1 μl) were loaded onto a Hypersil Gold aQ column (2.1×50 mm) containing 1.9μ media (Thermo Scientific). Compounds were eluted using a linear gradient of H2O:CH3CN with A containing H2O (0.1% formic acid) and B containing H2O:CH3CN (1:4, 0.1% formic acid). The gradient was: T=0 min 2% B, T=20 min 75% B, T=23 min 95% B, T=25 min, 95% B, T=25.2 min 2% B, T=30 min, 2% at 200 μl/min over 30 min. The column oven was heated to 45° C. Positive ions were generated by electrospray and the QExactive Plus mass spectrometer (Thermo Fisher, Bremen, Germany) operated in data dependent acquisition mode (DDA). The heated electrospray source (HESI) was used with a high voltage 3.8 kV applied; a vaporizer temp of 250° C.; sheath gas 20; aux gas 5 and the heated capillary set to T=290° C. […]

[2] = system: plasma levels of IL-1β, IL-2, IL-6, IL-4, IL-10; experiment: Collagen antibody-induced arthritis, plasma cytokine levels; type: in vivo, mouse; details: CAIA mice; 30 mg/kg
[3] = GLP ocular pharmacokinetics study, single intravitreal injection; type: in vivo; details: rabbit, eye, other: intravitreal injection; rabbits; single intravitreal injection 10 μg/50 μl; read-out: ocular half-life (t1/2) (converted)
Solubility in water = type: physicochemical

CCOC(=O)Nc1ccc2c(c1)C(=O)N(CC)c1ccccc1O2 [BT2, (10-ethyl-11-oxo-10,11-dihydro-dibenzo[b,f][1,4]oxazepin-2-yl)-carbamic acid ethyl ester]
IL-1β-inducible FosB/ΔFosB expression (Western blot) (FosB/ΔFosB): inhibited
IL-1β-inducible p-p38 (p-p38): no effect
stability of formulation after autoclaving ([1]; autoclaved (121° C., 15 psi, 20 min), 4 months storage at 22° C., LC/MS): remained stable
discrepancy in BT2 content ([1]; heat-treated formulation (100° C. for 10 min), RRLC-MS/MS): 1%
degradation of stored formulation ([1]; heat-treated or not, storage up to 16 months, RRLC-MS/MS): no loss in biological efficacy or degradation
discrepancy in BT2 content ([1]; non-heat treated formulation, RRLC-MS/MS): 0.2%
plasma level of IL-1β [2]: reduced plasma levels of IL-1β, IL-2 and IL-6 to normal levels
plasma level of IL-2 [2]: reduced plasma levels of IL-1β, IL-2 and IL-6 to normal levels
plasma level of IL-4 [2]: did not change
plasma level of IL-6 [2]: reduced plasma levels of IL-1β, IL-2 and IL-6 to normal levels
plasma level of IL-10 [2]: did not change
half-life [3]: 79.2 h
solubility in water (Solubility in water): poorly soluble in water
